Assay results as given in patent US7718385B2, “Bioactivation of alkylating agents for cancer treatment” (priority 2003, dated 2010).
Where two headings read alike, the source gives them in different places.

Columns and labels:
[1] = target: recombinant rat AOR (Rattus norvegicus, UniProt P97584, Q160G/Q263G/Q264G/Q276G)
Protocol: Varied concentrations of illudin M were added to a 200 μl 0.5× phosphate buffered saline (PBS) solution containing 115 ng of AOR and 43.4 nmoles NADPH, and incubated for 1 minute at 37° C. Reactions were then extracted with ethyl acetate containing piperine (internal standard), dried under vacuum, resuspended in HPLC buffer A (60% acetonitrile: 40% water), and injected into a Hewlett-Packard 1050 HPLC system equipped with a Luna C18 column (Phenomenex Inc.). Metabolites were separated using buffer A at a flow rate of 1 ml/min and quantified using diode array detection at 205 nm and previously reported extinction coefficients (Tanaka, et al., 1990). Vmax and Km were calculated using the HYPER program.
Rates were quantified from metabolite peak areas using reported extinction coefficients (Tanaka, et al., 1990; McMorris, et al., 1999).

[2] = system: 293 cells
[3] = target: T1, recombinant AOR (Rattus norvegicus, UniProt P97584, Q160G/Q263G/Q264G/Q276G); assay: LC/MS/MS of enzymatic and nonenzymatic GSH adducts; format: biochemical
T1 construct: made in house
Protocol: High Performance Liquid Chromatography with Tandem Mass Spectrometry (LC/MS/MS) of GSA Adducts. […] These reactions were incubated at 37° C. for 1 h. Controls lacking NAFPH were performed. Reactions were stopped and deproteinized with addition of 400 μl of ice-cold acetonitrile, spun at 3500×g for 10 min at 4° C., and the supernatants were evaporated to dryness under vacuum. Residual GSH and NADPH cofactors were removed using an Oasis C18 sample prep column (Waters Chromatography). Adducts were eluted with methanol, evaporated to dryness under vacuum, resuspended in […] of 0.1% acetic acid, and detected using liquid chromatography electrospray ionization tandem mass spectrometry performed in the positive ion mode. […] A flow rate of 0.1 ml/min and gradient of 0% buffer D (70% acetic acid (0.1%):30% acetonitrile) to 100% buffer E (20% acetic acid (0.1%):80% acetonitrile) over 30 min were used to resolve the compounds. Adducts were detected by monitoring for selected molecular ions or characteristic molecular fragments after MS/MS. Molecular fragments were obtained with 35% relative collusion energy.
Measuring GSH adduction is a commonly used technique for estimating covalent protein binding, and thus cytotoxicity, of a drug (Baillie and Kassahun, 2001). The nucleophilic thiol moiety of GSH effectively scavenges electrophilic molecules and its large size and charge prevent it from entering the active site of most enzymes. […] Daughter ions of adducts, which represent the loss of water (−18 m/z) or […] (−129 m/z), were common and monitored for in these experiments following MS/MS.
Enzymatic reduction occurred in incubations containing recombinant AOR, NADPH, and GSH, while companion nonenzymatic reductions lacked NADPH. […] However the NE irofulven-GSH adduct (FIG. 5B) was detected only after monitoring for a daughter ion (M+—H2)=536 m/z) and was 42-fold less abundant than the E adduct. […] Contrary to findings with irofulven, a great deal of NE illudin M-GSH adduct was detected in NADPH-deficient incubations.

Chain of recombinant rat AOR (P97584 whole entry Q160G/Q263G/Q264G/Q276G): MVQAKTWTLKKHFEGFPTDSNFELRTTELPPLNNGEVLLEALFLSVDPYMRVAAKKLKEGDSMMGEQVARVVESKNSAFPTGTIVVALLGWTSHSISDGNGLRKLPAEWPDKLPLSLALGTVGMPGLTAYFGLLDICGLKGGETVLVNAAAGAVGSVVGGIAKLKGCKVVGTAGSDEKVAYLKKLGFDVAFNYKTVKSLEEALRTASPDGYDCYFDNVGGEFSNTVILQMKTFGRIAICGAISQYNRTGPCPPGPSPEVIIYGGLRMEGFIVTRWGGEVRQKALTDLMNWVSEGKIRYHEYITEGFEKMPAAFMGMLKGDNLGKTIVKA
T1 sequence (P97584 whole entry Q160G/Q263G/Q264G/Q276G): as above

SMILES | Km [1] [µM] | maximal rate of metabolism by AOR [1] [µmol/min/mg] | Km ([1]; formation of Product 3) [µM] | Vmax ([1]; formation of Product 3) | Km ([1]; formation of Product 4) [µM] | Vmax ([1]; formation of Product 4) | CC50 ([2]; read-out: LC50 (concentration required to produce 50 percent lethality), 293 cells, 24 h, MTT assay) [nM] | NE GSH adduct detected ([3]; NADPH-deficient incubations) | abundance of E (enzymatic) GSH adduct over NE (nonenzymatic) adduct ([3]; incubations with AOR, GSH and NADPH, 1 h, 37° C.) [fold] | Km ([1]; formation of Product 5) [µM] | Vmax ([1]; formation of Product 5) | Km ([1]; formation of Product 6) [µM] | Vmax ([1]; formation of Product 6) | effect on AOR-mediated activation of irofulven [2] | effect on cell growth ([2]; 100 μM, alone)
CC1=C2C(=CC(C)(C)[C@@H]2O)C(=O)[C@](C)(O)C12CC2 [Illudin M] | 109 | 44.1 | 109 | 29,200 nmol/min/mg | 113 | 14,900 nmol/min/mg | ~1000 | a great deal | 14 |  |  |  |  |  | 
CC1=C2C(=C[C@@](C)(CO)[C@@H]2O)C(=O)[C@](C)(O)C12CC2 [Illudin S] | 308 | 115.9 |  |  |  |  |  |  |  | 486 | 65,400 nmol/min/mg | 308 | 50,500 nmol/min/mg |  | 
O=c1oc2ccccc2c(O)c1Cc1c(O)c2ccccc2oc1=O [dicumarol, Dicumarol] |  |  |  |  |  |  |  |  |  |  |  |  |  | attenuated partially | no effect on cell growth
